Measurements taken from US20080194574A1, “Pyrazine Derivatives As Effective Compounds Against Infectious Diseases” (AXXIMA PHARMACEUTICALS AG, priority 2003, published 2008).

The compounds below were run against T1, viral kinase pUL-97 (Human cytomegalovirus, UniProt P16788) (assay: UL97 kinase assay on Immobilon plate). Conditions: inhibition of UL 97 kinase activity; class by IC50 / % inhibition at 10 μM or 100 μM; read-out: Activity Class [A, B, C].
T1 construct: The pUL-97 gene was cloned into a baculovirus vector; GST (glutathione S-transferase) (N); made in house; host or cells: Sf9 insect cells, baculovirus
Type: biochemical
Summary of the method: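 Compound was titrated into a radiometric reaction of Sf9-expressed GST-UL97 kinase, incubated 1 h at 30 °C in Tris-HCl pH 7.5/MnCl2/DTT buffer before EDTA stop. MBP substrate and ATP (3 μM in the added assay buffer) were supplied with γ-[33P]ATP. Labelled product bound to Immobilon filter was washed and counted by scintillation.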

T1 sequence (P16788 whole entry): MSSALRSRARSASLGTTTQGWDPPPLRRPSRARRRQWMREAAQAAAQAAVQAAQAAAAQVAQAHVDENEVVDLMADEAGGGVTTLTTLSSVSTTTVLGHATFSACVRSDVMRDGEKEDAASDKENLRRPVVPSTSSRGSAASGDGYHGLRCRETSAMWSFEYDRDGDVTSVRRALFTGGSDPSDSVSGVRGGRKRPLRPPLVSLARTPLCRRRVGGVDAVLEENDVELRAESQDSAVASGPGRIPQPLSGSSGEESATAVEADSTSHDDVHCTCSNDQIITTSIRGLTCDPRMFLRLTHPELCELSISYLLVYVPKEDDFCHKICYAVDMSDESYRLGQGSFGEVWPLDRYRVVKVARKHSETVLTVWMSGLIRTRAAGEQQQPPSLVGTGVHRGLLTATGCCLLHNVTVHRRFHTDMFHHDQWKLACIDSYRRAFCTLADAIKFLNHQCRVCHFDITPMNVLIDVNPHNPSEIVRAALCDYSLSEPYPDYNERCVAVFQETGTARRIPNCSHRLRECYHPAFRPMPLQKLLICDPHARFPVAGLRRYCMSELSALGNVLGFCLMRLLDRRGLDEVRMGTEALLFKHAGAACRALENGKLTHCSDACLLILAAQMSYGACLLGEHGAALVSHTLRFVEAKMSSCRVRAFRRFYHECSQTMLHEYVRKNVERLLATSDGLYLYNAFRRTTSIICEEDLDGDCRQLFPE

IC50 [µM] | Compound
10 to 100 | CC(=O)c1ccc(N2CCN(c3cncc(-c4cccc(F)c4)n3)CC2)cc1 [compound 214, 1-{4-[6′-(3-Fluoro-phenyl)-2,3,5,6-tetrahydro-[1,2′]bipyrazinyl-4-yl]-phenyl}-ethanone]
10 to 100 | CC(=O)c1ccc(N2CCN(c3cncc(-c4ccccc4Oc4ccccc4)n3)CC2)cc1 [compound 215, 1-{4-[6′-(2-Phenoxy-phenyl)-2,3,5,6-tetrahydro-[1,2′]bipyrazinyl-4-yl]-phenyl}-ethanone]
10 to 100 | CN(C)c1ccc(-c2cncc(N3CCN(c4cccc(C(F)(F)F)c4)CC3)n2)cc1 [compound 216, Dimethyl-{4-[4-(3-trifluoromethyl-phenyl)-3,4,5,6-tetrahydro-2H-[1,2′]bipyrazinyl-6′-yl]-phenyl}-amine]
10 to 100 | FC(F)(F)c1cccc(N2CCN(c3cncc(-c4ccccc4Oc4ccccc4)n3)CC2)c1 [compound 217, 6′-(2-Phenoxy-phenyl)-4-(3-trifluoromethyl-phenyl)-3,4,5,6-tetrahydro-2H-[1,2′]bipyrazinyl]
10 to 100 | CC(=O)c1ccccc1-c1cncc(N2CCN(c3ccncc3)CC2)n1 [compound 218, 1-[2-(4-Pyridin-4-yl-3,4,5,6-tetrahydro-2H-[1,2′]bipyrazinyl-6′-yl)-phenyl]-ethanone]
1 to 10 | Cc1cccc(-c2cncc(N3CCN(c4ccncc4)CC3)n2)c1 [compound 219, 4-Pyridin-4-yl-6′-m-tolyl-3,4,5,6-tetrahydro-2H-[1,2′]bipyrazinyl]
1 to 10 | Cc1ccc(-c2cncc(N3CCN(c4ccncc4)CC3)n2)cc1 [compound 220, 4-Pyridin-4-yl-6′-p-tolyl-3,4,5,6-tetrahydro-2H-[1,2′]bipyrazinyl]
1 to 10 | c1ccc2c(-c3cncc(N4CCN(c5ccncc5)CC4)n3)cccc2c1 [compound 221, 6′-Naphthalen-1-yl-4-pyridin-4-yl-3,4,5,6-tetrahydro-2H-[1,2′]bipyrazinyl]
1 to 10 | c1ccc2c(-c3cncc(N4CCN(c5ccncc5)CC4)n3)csc2c1 [compound 222, 6′-Benzo[b]thiophen-3-yl-4-pyridin-4-yl-3,4,5,6-tetrahydro-2H-[1,2′]bipyrazinyl]
1 to 10 | COc1ccc(N2CCN(c3cncc(-c4cccc(C)c4)n3)CC2)cc1OC [compound 223, 4-(3,4-Dimethoxy-phenyl)-6′-m-tolyl-3,4,5,6-tetrahydro-2H-[1,2′]bipyrazinyl]
1 to 10 | COc1ccc(N2CCN(c3cncc(-c4ccc(C)cc4)n3)CC2)cc1OC [compound 224, 4-(3,4-Dimethoxy-phenyl)-6′-p-tolyl-3,4,5,6-tetrahydro-2H-[1,2′]bipyrazinyl]
10 to 100 | COc1ccc(OC)c(-c2cncc(N3CCN(c4ccc(OC)c(OC)c4)CC3)n2)c1 [compound 225, 4-(3,4-Dimethoxy-phenyl)-6′-(2,5-dimethoxy-phenyl)-3,4,5,6-tetrahydro-2H-[1,2′]bipyrazinyl]
10 to 100 | COc1ccc(N2CCN(c3cncc(-c4cccc(C)c4C)n3)CC2)cc1OC [compound 226, 4-(3,4-Dimethoxy-phenyl)-6′-(2,3-dimethyl-phenyl)-3,4,5,6-tetrahydro-2H-[1,2′]bipyrazinyl]
1 to 10 | COc1ccc(N2CCN(c3cncc(-c4csc5ccccc45)n3)CC2)cc1OC [compound 227, 6′-Benzo[b]thiophen-3-yl-4-(3,4-dimethoxy-phenyl)-3,4,5,6-tetrahydro-2H-[1,2′]bipyrazinyl]
10 to 100 | Cc1ccc(N2CCN(c3cncc(-c4cccc(C)c4)n3)CC2)cc1 [compound 228, 6′-m-Tolyl-4-p-tolyl-3,4,5,6-tetrahydro-2H-[1,2′]bipyrazinyl]
10 to 100 | Cc1ccc(-c2cncc(N3CCN(c4ccc(C)cc4)CC3)n2)cc1 [compound 229, 4,6′-Di-p-tolyl-3,4,5,6-tetrahydro-2H-[1,2′]bipyrazinyl]
10 to 100 | Cc1ccc(N2CCN(c3cncc(-c4cccc5ccccc45)n3)CC2)cc1 [compound 230, 6′-Naphthalen-1-yl-4-p-tolyl-3,4,5,6-tetrahydro-2H-[1,2′]bipyrazinyl]
